Results taken from ChEMBL document CHEMBL6177933, “Discovery of Sophoridine α-Aryl Propionamide Derivative ZM600 as a Novel Antihepatic Fibrosis Agent” (J Med Chem, 2024).
Calls of active or inactive are those of the source. No cut-off for these calls is given here.

What was measured:
[1] = test system: RAW264.7; assay: Antiinflammatory activity in mouse RAW264.7 cells assessed as inhibition of LPS-induced alpha-SMA mRNA expression at 5 to 20 uM preincubated for 2 hrs followed by LPS stimulation and measured after 48 hrs by qRT-PCR analysis; format: functional, cell-based; conditions: dose 5-20 µM, time 50.0 hrs
[2] = test system: Mus musculus; assay: In vivo inhibition of JNK phosphorylation in BDL-induced C57BL/6J mouse hepatic fibrosis model at 15 to 30 mg/kg, po administered via gavage starting from 3 days post-BDL by Western blot analysis; format: functional, organism-based; conditions: dose 15-30 mg/kg
[3] = test system: Mus musculus; assay: Antifibrotic activity against BDL-induced C57BL/6J mouse hepatic fibrosis model assessed as reduction in alphaSMA expression in liver at 15 to 30 mg/kg, po administered via gavage starting from 3 days post-BDL by Western blot analysis; format: functional, organism-based; conditions: dose 15-30 mg/kg
[4] = Cytotoxicity against human LX-2 cells assessed as reduction in cell viability measured after 48 hrs by CCK-8 assay; format: toxicity, cell-based
[5] = test system: Mus musculus; assay: In vivo inhibition of Smad2 phosphorylation in BDL-induced C57BL/6J mouse hepatic fibrosis model at 15 to 30 mg/kg, po administered via gavage starting from 3 days post-BDL by Western blot analysis; format: functional, organism-based; conditions: dose 15-30 mg/kg
[6] = test system: Mus musculus; assay: Antifibrotic activity against CCL4-induced C57BL/6J mouse hepatic fibrosis model assessed as reduction in hard texture of liver at 15 to 30 mg/kg, po administered via gavage for 4 weeks starting from 5th week of CCL4 stimulation; format: functional, organism-based; conditions: dose 15-30 mg/kg
[7] = test system: Mus musculus; assay: In vivo inhibition of p65 phosphorylation in CCL4-induced C57BL/6J mouse hepatic fibrosis model at 15 to 30 mg/kg, po administered via gavage for 4 weeks starting from 5th week of CCL4 stimulation by Western blot analysis; format: functional, organism-based; conditions: dose 15-30 mg/kg
[8] = test system: Mus musculus; assay: Antifibrotic activity against BDL-induced C57BL/6J mouse hepatic fibrosis model assessed as reduction in alphaSMA mRNA expression in liver at 15 to 30 mg/kg, po administered via gavage starting from 3 days post-BDL by qRT-PCR analysis; format: functional, organism-based; conditions: dose 15-30 mg/kg
[9] = test system: Mus musculus; assay: In vivo inhibition of p65 phosphorylation in BDL-induced C57BL/6J mouse hepatic fibrosis model at 15 to 30 mg/kg, po administered via gavage starting from 3 days post-BDL by Western blot analysis; format: functional, organism-based; conditions: dose 15-30 mg/kg
[10] = test system: Mus musculus; assay: (§1) Antifibrotic activity against CCL4-induced C57BL/6J mouse hepatic fibrosis model assessed as reduction in necrosis of hepatocytes at 15 to 30 mg/kg, po administered via gavage for 4 weeks starting from 5th week of CCL4 stimulation by H and E staining based histopathological analysis; format: functional, organism-based; conditions: dose 15-30 mg/kg
[11] = test system: LX-2; assay: Inhibition of FBS-induced cell migration in human LX-2 cells assessed as reduction in number of migrated cells measured after 24 hrs by crystal violet staining based transwell assay; format: functional; conditions: dose 5-20 µM
[12] = target: Mothers against decapentaplegic homolog 3 (Homo sapiens) (UniProt P84022); assay: Inhibition of TGFbeta1-induced Smad3 phosphorylation in human LX-2 cells preincubated for 2 hrs followed by […] stimulation and measured after 2 hrs by Western blot analysis; format: cell-based; conditions: dose 5-20 µM, time 4.0 hrs
[13] = test system: Mus musculus; assay: In vivo inhibition of Smad2 phosphorylation in CCL4-induced C57BL/6J mouse hepatic fibrosis model at 15 to 30 mg/kg, po administered via gavage for 4 weeks starting from 5th week of CCL4 stimulation by Western blot analysis; format: functional, organism-based; conditions: dose 15-30 mg/kg
[14] = target: c-Jun N-terminal kinase, JNK (Homo sapiens) (UniProt P45983+P53779+P45984); assay: Inhibition of TGFbeta1-induced JNK phosphorylation in human LX-2 cells at 5 to 20 uM preincubated for 2 hrs followed by […] stimulation and measured after 2 hrs by Western blot analysis; format: cell-based; conditions: dose 5-20 µM, time 4.0 hrs
[15] = test system: Mus musculus; assay: Antifibrotic activity against BDL-induced C57BL/6J mouse hepatic fibrosis model assessed as reduction in collagen 1 expression in liver at 15 to 30 mg/kg, po administered via gavage starting from 3 days post-BDL by Western blot analysis; format: functional, organism-based; conditions: dose 15-30 mg/kg
[16] = test system: Mus musculus; assay: In vivo inhibition of JNK phosphorylation in CCL4-induced C57BL/6J mouse hepatic fibrosis model at 15 to 30 mg/kg, po administered via gavage for 4 weeks starting from 5th week of CCL4 stimulation by Western blot analysis; format: functional, organism-based; conditions: dose 15-30 mg/kg
[17] = test system: Mus musculus; assay: In vivo inhibition of p38 phosphorylation in CCL4-induced C57BL/6J mouse hepatic fibrosis model at 15 to 30 mg/kg, po administered via gavage for 4 weeks starting from 5th week of CCL4 stimulation by Western blot analysis; format: functional, organism-based; conditions: dose 15-30 mg/kg
[18] = test system: Mus musculus; assay: as §1, with “infiltration” for “necrosis”, “inflammatory cells in liver” for “hepatocytes”; format: functional, organism-based; conditions: dose 15-30 mg/kg
[19] = test system: RAW264.7; assay: Inhibition of LPS-induced NFkappaB transcriptional activity in mouse RAW264.7 cells at 5 uM preincubated for 2 hrs followed by LPS stimulation and measured after 6 hrs by luciferase reporter gene assay relative to control; format: cell-based; conditions: time 8.0 hrs
[20] = test system: Mus musculus; assay: Antifibrotic activity against CCL4-induced C57BL/6J mouse hepatic fibrosis model assessed as reduction in alphaSMA expression in liver at 15 to 30 mg/kg, po administered via gavage for 4 weeks starting from 5th week of CCL4 stimulation by qRT-PCR analysis; format: functional, organism-based; conditions: dose 15-30 mg/kg
[21] = test system: Mus musculus; assay: In vivo inhibition of Smad3 phosphorylation in CCL4-induced C57BL/6J mouse hepatic fibrosis model at 15 to 30 mg/kg, po administered via gavage for 4 weeks starting from 5th week of CCL4 stimulation by Western blot analysis; format: functional, organism-based; conditions: dose 15-30 mg/kg
[22] = test system: RAW264.7; assay: Antiinflammatory activity in mouse RAW264.7 cells assessed as inhibition of TGFbeta1-induced alpha-SMA mRNA expression at 5 to 20 uM preincubated for 2 hrs […] and measured after 48 hrs by qRT-PCR analysis; format: functional, cell-based; conditions: dose 5-20 µM, time 50.0 hrs
[23] = test system: Mus musculus; assay: In vivo inhibition of p38 phosphorylation in BDL-induced C57BL/6J mouse hepatic fibrosis model at 15 to 30 mg/kg, po administered via gavage starting from 3 days post-BDL by Western blot analysis; format: functional, organism-based; conditions: dose 15-30 mg/kg
[24] = test system: RAW264.7; assay: Antiinflammatory activity in mouse RAW264.7 cells assessed as inhibition of TGFbeta1-induced collagen 1 expression at 5 to 20 uM preincubated for 2 hrs […] and measured after 48 hrs by Western blot analysis; format: functional, cell-based; conditions: dose 5-20 µM, time 50.0 hrs
[25] = test system: RAW264.7; assay: Antiinflammatory activity in mouse RAW264.7 cells assessed as inhibition of TGFbeta1-induced collagen 1 mRNA expression at 5 to 20 uM preincubated for 2 hrs […] and measured after 48 hrs by qRT-PCR analysis; format: functional, cell-based; conditions: dose 5-20 µM, time 50.0 hrs
[26] = test system: Mus musculus; assay: In vivo inhibition of Smad3 phosphorylation in BDL-induced C57BL/6J mouse hepatic fibrosis model at 15 to 30 mg/kg, po administered via gavage starting from 3 days post-BDL by Western blot analysis; format: functional, organism-based; conditions: dose 15-30 mg/kg
[27] = test system: Mus musculus; assay: In vivo inhibition of ERK1/2 phosphorylation in BDL-induced C57BL/6J mouse hepatic fibrosis model at 15 to 30 mg/kg, po administered via gavage starting from 3 days post-BDL by Western blot analysis; format: functional, organism-based; conditions: dose 15-30 mg/kg
[28] = test system: Mus musculus; assay: Antifibrotic activity against BDL-induced C57BL/6J mouse hepatic fibrosis model assessed as reduction in collagen deposition in liver at 15 to 30 mg/kg, po administered via gavage starting from 3 days post-BDL by Sirius Red and Masson staining based assay; format: functional, organism-based; conditions: dose 15-30 mg/kg

Mothers against decapentaplegic homolog 3 (Homo sapiens), sequence (P84022 2-425 limits assumed): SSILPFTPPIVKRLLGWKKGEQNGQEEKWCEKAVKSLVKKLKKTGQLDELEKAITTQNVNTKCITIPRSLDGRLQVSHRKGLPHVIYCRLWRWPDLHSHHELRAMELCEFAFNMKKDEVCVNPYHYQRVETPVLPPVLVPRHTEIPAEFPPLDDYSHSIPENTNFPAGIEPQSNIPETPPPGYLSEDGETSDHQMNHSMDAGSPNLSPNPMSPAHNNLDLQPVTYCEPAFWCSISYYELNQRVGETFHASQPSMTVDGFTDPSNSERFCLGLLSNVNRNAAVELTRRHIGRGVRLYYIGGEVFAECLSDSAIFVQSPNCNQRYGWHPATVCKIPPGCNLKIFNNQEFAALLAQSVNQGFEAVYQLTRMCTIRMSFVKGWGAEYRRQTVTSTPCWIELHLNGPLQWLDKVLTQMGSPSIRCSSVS

In the case of `COC(=O)CCC[C@@H]1[C@H]2CCCN3CCC[C@H](CN1C(=O)C(C)c1ccc(-c4ccccc4)c(F)c1)[C@@H]23` (stereo partly drawn), the inhibition [1] is reported as “Active”, the inhibition [2] is reported as “inactive” and the Activity [3] is reported as “Active”. For the same compound, the IC50 at 48 h [4] was 38.2 µM, the inhibition [5] was “Active” and the Activity [6] was “Active; Significant Alleviation Observed”. The inhibition [7] was “Active”, the Activity [8] was “Active” and the inhibition [9] was “Active”. For the same compound, the Activity [10] was “Active”, the inhibition [11] was “Dose-dependent-effect” and the inhibition [12] was “Dose-dependent-effect”. For the same compound, the inhibition [13] was “Active”, the inhibition [14] was “inactive” and the Activity [15] was “Active”. The inhibition [16] was “inactive”, the inhibition [17] was “inactive” and the Activity [18] was “Active”. The fold change (FC) [19] was 0.86, the Activity [20] was “Active” and the inhibition [21] was “Active”. The inhibition [22] was “Active”, the inhibition [23] was “inactive” and the inhibition [24] was “Active”. The inhibition [25] was “Active”, the inhibition [26] was “Active” and the inhibition [27] was “inactive”. For the same compound, the Activity [28] was “Active”.
